30 compounds from BindingDB's records for doi:10.1021/jm980131z (Boehringer Ingelheim (Canada), 1998) can be followed below.

Where only a bound is given, the exact number is not on record here.

The target in this test is Human cytomegalovirus protease (Human herpesvirus 5). The experiment in a line: Inhibitory activity against human cytomegalovirus (HCMV) protease.

Compound `CC1(C)C(=O)N(C(=O)NCc2ccncc2)[C@@H]1Cc1ccccc1` returned a half-inhibitory concentration (IC50) above 300 µM.

For the compound `CS[C@@H]1C(=O)N(C(=O)NCc2ccncc2)[C@H]1Cc1ccccc1` [(2S,3S)-2-Benzyl-3-methylsulfanyl-4-oxo-azetidine-1-carboxylic acid (pyridin-4-ylmethyl)-amide], half-maximal inhibition (IC50) was put at 6.9 µM.

`C[C@@H](NC(=O)N1C(=O)C[C@H]1Cc1ccccc1)c1ccccc1` [(R)-2-Benzyl-4-oxo-azetidine-1-carboxylic acid ((R)-1-phenyl-ethyl)-amide] had an IC50 above 75 µM.

`CC1(C)C(=O)N(C(=O)NCc2ccncc2)[C@H]1Cc1ccccc1` [(S)-2-Benzyl-3,3-dimethyl-4-oxo-azetidine-1-carboxylic acid (pyridin-4-ylmethyl)-amide] registered an IC50 above 75 µM.

For the compound `CC(=O)Nc1ccc(CN(C)C(=O)N2C(=O)C[C@@H]2Cc2ccccc2)cc1` [(S)-2-Benzyl-4-oxo-azetidine-1-carboxylic acid (4-acetylamino-benzyl)-methyl-amide], inhibition was half-maximal at 17 µM (IC50).

For `CN(Cc1ccc(N)cc1)C(=O)N1C(=O)C[C@@H]1Cc1ccccc1` [(S)-2-Benzyl-4-oxo-azetidine-1-carboxylic acid (4-amino-benzyl)-methyl-amide], the IC50 was 20 µM.

In the case of `CN(Cc1ccc(Cl)cc1)C(=O)N1C(=O)C[C@@H]1Cc1ccccc1` [(S)-2-Benzyl-4-oxo-azetidine-1-carboxylic acid (4-chloro-benzyl)-methyl-amide], the IC50 came to 6.9 µM.

Take `CN(Cc1ccc(C#N)cc1)C(=O)N1C(=O)C[C@@H]1Cc1ccccc1` [(S)-2-Benzyl-4-oxo-azetidine-1-carboxylic acid (4-cyano-benzyl)-methyl-amide]: half-maximal inhibition (IC50) was put at 6 µM.

`O=C1C[C@H](Cc2ccccc2)N1C(=O)Nc1ccc(F)cc1` [(S)-2-Benzyl-4-oxo-azetidine-1-carboxylic acid (4-fluoro-phenyl)-amide] showed a half-maximal inhibitory concentration (IC50) of 3.7 µM.

Take `CC(C)c1ccc(CN(C)C(=O)N2C(=O)C[C@@H]2Cc2ccccc2)cc1` [(S)-2-Benzyl-4-oxo-azetidine-1-carboxylic acid (4-isopropyl-benzyl)-methyl-amide]: the IC50 came out at 6.4 µM.

In the case of `COc1ccc(NC(=O)N2C(=O)C[C@@H]2Cc2ccccc2)cc1` [(S)-2-Benzyl-4-oxo-azetidine-1-carboxylic acid (4-methoxy-phenyl)-amide], inhibition was half-maximal at 3.9 µM (IC50).

With `CCC[C@@H](NC(=O)N1C(=O)C[C@@H]1Cc1ccccc1)c1ccccc1` [(S)-2-Benzyl-4-oxo-azetidine-1-carboxylic acid ((R)-1-phenyl-butyl)-amide], the IC50 amounted to 3.4 µM.

Compound `C[C@@H](NC(=O)N1C(=O)C[C@@H]1Cc1ccccc1)c1ccccc1` [(S)-2-Benzyl-4-oxo-azetidine-1-carboxylic acid ((R)-1-phenyl-ethyl)-amide] yielded an IC50 of 4 µM.

`CC[C@@H](NC(=O)N1C(=O)C[C@@H]1Cc1ccccc1)c1ccccc1` [(S)-2-Benzyl-4-oxo-azetidine-1-carboxylic acid ((R)-1-phenyl-propyl)-amide] came in with a half-inhibitory concentration (IC50) of 2.6 µM.

On to `C[C@H](NC(=O)N1C(=O)C[C@@H]1Cc1ccccc1)c1ccccc1` [(S)-2-Benzyl-4-oxo-azetidine-1-carboxylic acid ((S)-1-phenyl-ethyl)-amide], for which half-maximal inhibition (IC50) was put at 42 µM.

The compound `O=C1C[C@H](Cc2ccccc2)N1C(=O)NCc1ccccn1` [(S)-2-Benzyl-4-oxo-azetidine-1-carboxylic acid (pyridin-2-ylmethyl)-amide] displayed an IC50 of 33 µM.

In turn, `O=C1C[C@H](Cc2ccccc2)N1C(=O)NCc1cccnc1` [(S)-2-Benzyl-4-oxo-azetidine-1-carboxylic acid (pyridin-3-ylmethyl)-amide] showed a concentration for half-maximal inhibition (IC50) of 10 µM.

`O=C1C[C@H](Cc2ccccc2)N1C(=O)NCc1ccncc1` [(S)-2-Benzyl-4-oxo-azetidine-1-carboxylic acid (pyridin-4-ylmethyl)-amide]: half-maximal inhibition (IC50) required 12 µM.

As to `O=C1C[C@H](Cc2ccccc2)N1C(=O)N(Cc1ccccc1)OCc1ccccc1` [(S)-2-Benzyl-4-oxo-azetidine-1-carboxylic acid benzyl-benzyloxy-amide], half-maximal inhibition (IC50) was put at 13 µM.

For `O=C1C[C@H](Cc2ccccc2)N1C(=O)N(Cc1ccccc1)C1CC1` [(S)-2-Benzyl-4-oxo-azetidine-1-carboxylic acid benzyl-cyclopropyl-amide], the IC50 was above 75 µM.

Consider `CON(Cc1ccccc1)C(=O)N1C(=O)C[C@@H]1Cc1ccccc1` [(S)-2-Benzyl-4-oxo-azetidine-1-carboxylic acid benzyl-methoxy-amide], for which the IC50 is 6.2 µM.

Compound `O=C1C[C@H](Cc2ccccc2)N1C(=O)NCc1ccccc1` [(S)-2-Benzyl-4-oxo-azetidine-1-carboxylic acid benzylamide] registered a half-inhibitory concentration (IC50) of 10 µM.

With `O=C1C[C@H](Cc2ccccc2)N1C(=O)NC1CCCCC1` [(S)-2-Benzyl-4-oxo-azetidine-1-carboxylic acid cyclohexylamide], the IC50 was found to be 8.4 µM.

For the compound `CN(Cc1ccccc1[N+](=O)[O-])C(=O)N1C(=O)C[C@@H]1Cc1ccccc1` [(S)-2-Benzyl-4-oxo-azetidine-1-carboxylic acid methyl-(2-nitro-benzyl)-amide], 11 µM corresponded to half-maximal inhibition (IC50).

With `CN(Cc1cccc([N+](=O)[O-])c1)C(=O)N1C(=O)C[C@@H]1Cc1ccccc1` [(S)-2-Benzyl-4-oxo-azetidine-1-carboxylic acid methyl-(3-nitro-benzyl)-amide], the IC50 was determined as 6.9 µM.

The compound `Cc1ccc(CN(C)C(=O)N2C(=O)C[C@@H]2Cc2ccccc2)cc1` [(S)-2-Benzyl-4-oxo-azetidine-1-carboxylic acid methyl-(4-methyl-benzyl)-amide] came in with an IC50 of 8.9 µM.

Turning to `CN(Cc1ccc([N+](=O)[O-])cc1)C(=O)N1C(=O)C[C@@H]1Cc1ccccc1` [(S)-2-Benzyl-4-oxo-azetidine-1-carboxylic acid methyl-(4-nitro-benzyl)-amide], the IC50 was 1.5 µM.

The compound `CN(Cc1ccc(S(=O)(=O)C(F)(F)F)cc1)C(=O)N1C(=O)C[C@@H]1Cc1ccccc1` [(S)-2-Benzyl-4-oxo-azetidine-1-carboxylic acid methyl-(4-trifluoromethanesulfonyl-benzyl)-amide] returned an IC50 of 4.3 µM.

As for `CN(Cc1ccc(SC(F)(F)F)cc1)C(=O)N1C(=O)C[C@@H]1Cc1ccccc1` [(S)-2-Benzyl-4-oxo-azetidine-1-carboxylic acid methyl-(4-trifluoromethylsulfanyl-benzyl)-amide], inhibition was half-maximal at 6.9 µM (IC50).

Take `Cc1ccc(NC(=O)N2C(=O)C[C@@H]2Cc2ccccc2)cc1` [(S)-2-Benzyl-4-oxo-azetidine-1-carboxylic acid p-tolylamide]: half-maximal inhibition (IC50) was put at 5.2 µM.

The term IC50 denotes the midpoint of a concentration-inhibition curve. Higher therefore signals weaker potency in that assay.
